Experiments:
CYP3A4 = CYP3A4 (Homo sapiens, UniProt P08684); experiment: In vitro loss of parent drug as catalyzed by CYPs; assay type: in vitro ADME
CXCL12 and CCL2 = experiment: Plasma chemokines in treated CLL patients; assay type: in vivo, human; conditions: CLL patients on treatment
BTK = biological target: T1, BTK (Mus musculus, UniProt P35991); experiment: Molecular probe assay of BTK occupancy in MDSCs of tumor bearing PDA mice; assay type: in vivo; conditions: 15 mg/kg BID, Day 8, 4 hours post dose
T1 construct: endogenous in cells; host or cells: granulocytic and monocytic MDSCs from tumor-bearing PDA mice
T1 sequence (P35991 whole entry): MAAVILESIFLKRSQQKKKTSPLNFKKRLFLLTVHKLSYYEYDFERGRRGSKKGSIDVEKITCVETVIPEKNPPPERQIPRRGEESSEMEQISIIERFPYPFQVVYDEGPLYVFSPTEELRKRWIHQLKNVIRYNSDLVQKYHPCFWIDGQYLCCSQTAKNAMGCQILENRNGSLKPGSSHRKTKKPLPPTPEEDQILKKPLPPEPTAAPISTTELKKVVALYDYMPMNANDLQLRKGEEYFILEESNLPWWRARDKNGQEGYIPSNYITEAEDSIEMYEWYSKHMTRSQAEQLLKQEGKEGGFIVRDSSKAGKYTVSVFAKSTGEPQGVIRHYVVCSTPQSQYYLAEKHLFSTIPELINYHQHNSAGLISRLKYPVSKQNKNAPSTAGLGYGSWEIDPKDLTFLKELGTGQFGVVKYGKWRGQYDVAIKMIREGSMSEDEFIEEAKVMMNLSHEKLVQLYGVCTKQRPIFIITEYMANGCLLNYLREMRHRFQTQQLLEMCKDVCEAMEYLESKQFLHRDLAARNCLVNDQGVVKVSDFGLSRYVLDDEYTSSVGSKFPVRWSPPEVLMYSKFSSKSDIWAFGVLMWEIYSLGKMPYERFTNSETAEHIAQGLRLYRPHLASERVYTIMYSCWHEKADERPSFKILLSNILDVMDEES
Source text: A molecular probe assay was used to calculate the percent irreversible occupancy of total BTK.

CYP enzymes = experiment: Nonclinical CYP interaction studies; assay type: in vitro ADME
KPC pancreatic cancer = KPC pancreatic cancer model (tumor volumes, tumor tissue immune cells); assay type: in vivo; conditions: tumor tissues
[1] = tested on: NK cells and MDSC subsets in peripheral blood; experiment: Flow cytometry of peripheral blood cell subsets in CLL patients; assay type: in vivo, human; conditions: patients with falling ALC counts; 28 days of dosing
Experimental: PBMCs were stained with monoclonal antibodies conjugated to fluorescent tags (flourochromes) to identify cell subsets via flow cytometry. Non-viable cells were excluded from the analysis using the dye 7-aminoactinomycin D (7-AAD). To produce the metric of percent change, the following steps were taken. First, each cell subset was defined by hierarchical flow cytometry gating. Then, the change in frequency (between day 1 and day 28) was calculated for each cell subset. MDSC subsets were measured as a % of all myeloid cells. T cell subsets were measured as a % of all CD3^+ cells, and NK cells were measured as a % of all live CD45^+ cells. […] A cycle is 28 days. A trend is observed wherein patients with decreasing ALC % had increasing MDSC (monocytic) %. This may include patients who had quickly resolving lymphocytosis and those with no initial lymphocytosis. […] This may include patients who had quickly resolving lymphocytosis and those having no initial lymphocytosis. The effects in FIG. 47 to FIG. 50 are observed in multiple cohorts, at doses including 100 mg BID, 200 mg QD, and 400 mg QD. In FIG. 51 and FIG. 52, the effects on NK cells and MDSC cells are compared to a number of other markers versus % change in ALC at C1D28 and C2D28. […] The effects on NK cells and MDSC cells are observed to be much more pronounced than on any of these other markers.

NSCLC (KrasLA2) = experiment: KrasLA2 genetic tumor model of NSCLC; assay type: in vivo; conditions: KrasLA2 mice, 15 mg/kg
Source text: The model is designed to have sporadic expression in single cells of G12D mutant Kras off its own promoter triggered by spontaneous intrachromosomal recombination. Johnson, et al., Nature 2001, 410, 1111-16. While the mutant Kras protein is expressed in a few cells in all tissues, tumor development is seen only in the lung at high penetrance.

CD8+ T cells = experiment: CD8+ T cell viability on anti-TCR/anti-CD28 coated wells; assay type: cell-based; conditions: 4 days, neutral culture conditions
Experimental: Total T cells were plated on anti-TCR and anti-CD28 coated wells in the presence of both BTK inhibitors. Neutral culture conditions were used that will not polarize T cells to a helper lineage. […] Statistical significance was calculated using the Mann Whitney T-test.

CD8+ T cell = experiment: Cytotoxicity assay for CD8+ T cell function; assay type: cell-based; conditions: relative to vehicle
Source text: FIG. 38 illustrates the results of the cytotoxicity assay for CD8^+ T cell function.

[2] = tested on: BCR; activation markers CD69 and CD86; experiment: In vivo potency: BCR stimulated with IgM, CD69 and CD86 expression by flow cytometry; conditions: mice gavaged, sacrificed 3 hours post-dose, compared with ibrutinib
Experimental: Mice were gavaged at increasing drug concentration and sacrificed at one time point (3 hours post-dose). BCR is stimulated with IgM and the expression of activation markers CD69 and CD86 are monitored by flow cytometry to determine EC50 values.

CYP3A4, sequence (P08684 whole entry): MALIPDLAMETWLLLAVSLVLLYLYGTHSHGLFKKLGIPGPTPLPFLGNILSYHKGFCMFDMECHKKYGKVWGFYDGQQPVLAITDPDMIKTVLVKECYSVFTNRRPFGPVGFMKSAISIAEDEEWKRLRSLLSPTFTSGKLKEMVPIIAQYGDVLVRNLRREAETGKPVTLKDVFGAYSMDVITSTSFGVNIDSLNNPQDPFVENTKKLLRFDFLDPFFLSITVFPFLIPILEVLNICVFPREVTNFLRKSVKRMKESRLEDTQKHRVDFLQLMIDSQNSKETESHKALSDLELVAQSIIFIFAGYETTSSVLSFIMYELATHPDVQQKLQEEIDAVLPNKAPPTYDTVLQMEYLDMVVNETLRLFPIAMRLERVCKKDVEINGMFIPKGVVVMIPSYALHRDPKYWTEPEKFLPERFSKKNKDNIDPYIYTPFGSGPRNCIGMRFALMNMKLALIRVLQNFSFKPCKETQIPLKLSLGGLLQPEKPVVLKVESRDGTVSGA

SMILES: CC#CC(=O)N1CCC[C@H]1c1nc(-c2ccc(C(=O)Nc3ccccn3)cc2)c2c(N)nccn12 [Formula (2), (S)-4-(8-amino-3-(1-(but-2-ynoyl)pyrrolidin-2-yl)imidazo[1,5-a]pyrazin-1-yl)-N-(pyridin-2-yl)benzamide]
- CYP responsible for metabolism (CYP3A4): metabolized by CYP3A4
- plasma CCL2 levels (CXCL12 and CCL2): significant decrease
- plasma CXCL12 levels (CXCL12 and CCL2): significant decrease
- irreversible BTK occupancy in granulocytic and monocytic MDSCs (BTK): Complete BTK occupancy
- potential for clinical drug-drug interactions via CYP enzymes (CYP enzymes): very unlikely to cause clinical drug-drug interactions
- immunosuppressive MDSCs (Gr1+Ly6CHi) (KPC pancreatic cancer): significantly reduced
- immunosuppressive TAMs (CD11b+Ly6ClowF4/80+Csf1r+) (KPC pancreatic cancer): significantly reduced
- immunosuppressive Tregs (CD4+CD25+FoxP3+) (KPC pancreatic cancer): significantly reduced
- NK cells and monocytic MDSC subsets in peripheral blood [1]: increase in frequency
- tumor volumes versus vehicle (NSCLC (KrasLA2)): significant decrease
- CD8+ T cell viability (CD8+ T cells): not observed
- CD8+ T cell function as % cytotoxicity (CD8+ T cell): no effect on CD8^+ T cell function as measured by % cytotoxicity relative to vehicle
- inhibition of expression of activation markers CD69 and CD86 [2]: more potent at inhibiting expression of activation makers than Formula (10) (ibrutinib)

Reference: patent US20190022092A1, “Therapeutic Combinations of a BTK Inhibitor and a GITR Binding Molecule, a 4-1BB Agonist, or an OX40 Agonist” (Acerta Pharma B.V., priority 2015, published 2019)
